In US12678503B2, “Water-activated mucoadhesive compositions and methods of delivering biologically active substances” (The Brigham and Women's Hospital, Inc., priority 2019, dated 2026):

Key:
[1] = Aluminum release in simulated GI fluids; format: physicochemical; details: simulated gastric fluid (SGF, pH 1.0)
[2] = Film thickness of hydrated paste on mucus-coated cellulose nitrate membrane; format: physicochemical
Protocol: Five hundred milligrams of AF-LuCI (excess) was added onto mucus-coated cellulose nitrate membrane (disk shape with 2 cm diameter) and DDW (pH 5.5), SGF (pH 1.0), or SIF (pH 6.5) was added immediately. After AF-LuCI becomes a paste and flow to form a layer (3-5 minutes), supernatant was removed and the paste-coated membrane was quickly frozen in −80° C. freezer to measure the thickness. The thickness of the mucus-coated cellulose nitrate membrane without AF-LuCI was separately measured as a baseline.

[3] = Integrative barrier property test, glucose permeation in Franz-cell system
Protocol: To examine the barrier properties of pastes formed from the new hydratable compositions in vitro, a mucin-coated membrane was prepared to mimic the mucus surface of the intestine. Specifically, a cellulose nitrate membrane (pore size: 0.2 μm, Whatman, Germany) was incubated in a 3% w/v porcine stomach mucin (Sigma Aldrich, USA) solution in PBS (pH 7.4) and gently shaken for 2 hours at room temperature. The membrane was washed with distilled deionized water (DDW, pH 5.5) to remove the excess mucin solution. The mucin-coated membranes were used within 1 hour following preparation.
To measure the thickness of the mucin layer, the mucin-coated membrane was lyophilized and imaged using scanning electron microscope (SEM) and the thickness of randomly selected positions was examined (average mucin layer thickness: ~100 μm). To test the nutrient barrier properties, 10 mg of sucralfate or AF-LuCI was added evenly to a mucin-coated membrane and vertically tilted for 1 minute. […]
The permeation tests were performed in triplicate for each material. The glucose concentration was measured using high performance liquid chromatography (HPLC, Agilent, USA) with an analytical C18 column (Zorbax Eclipse XDB-C18, Agilent). […]

[4] = Degree of polymerization of PAC by titration; format: physicochemical; details: native sucralfate
Protocol: Experiments were performed to determine the degree of polymerization in AF-LuCI by using the titration-based methods as described in Nail, S. L., White, J. L. & Hem, S. L. Structure of Aluminum Hydroxide Gel I. Initial Precipitate. Journal of Pharmaceutical Sciences 65, 1188-1191 (1976); and Hem, J. D. & Roberson, C. E. Form and stability of aluminum hydroxide complexes in dilute solution. Geol Surv Water-Supply Pap (US); (United States) (1967). The degree of polymerization of PACs in AF-LuCI and sucralfate molecule was determined using titration method based on the reversible protonation of hydroxo linkages in the PAC backbone. Approximately 10 mg of AF-LuCI were treated with 0.1N, 0.2N, 0.3N, 0.4N and 0.5N HCl solutions in different tubes. The samples were vortexed for 5 seconds followed by 1-hour incubation. The supernatant of each sample was then collected and the pH was measured using a pH meter. The same procedures were performed with sucralfate. The pH of the HCl solutions was measured as the control group and the difference between the control and the treated groups was calculated. The difference in pH corresponds to the proton consumption and the amount of hydroxo linkages that were then used to calculate the number of aluminum per molecule.

[5] = Dissolution in NaCl solutions; format: physicochemical; details: saturated NaCl solutions (~0.35 g/ml in water)
Text: […] This is a characteristic behavior of liquid complex coacervate system (See Wang, Q. & Schlenoff, J. B. The Polyelectrolyte Complex/Coacervate Continuum. Macromolecules 47, 3108-3116 (2014); de Kruif, C. G., Weinbreck, F. & de Vries, R. Complex coacervation of proteins and anionic polysaccharides. Current Opinion in Colloid & Interface Science 9, 340-349 (2004); Veis, A. & Aranyi, C. PHASE SEPARATION IN POLYELECTROLYTE SYSTEMS. I. COMPLEX COACERVATES OF GELATIN. J. Phys. Chem. 64, 1203-1210 (1960)).

Sprague-Dawley (SD) rats = test: microCT imaging of coating in the GI tract; format: in vivo, rat; details: gavaged to SD rats
Protocol: Sprague-Dawley (SD) rats were gavaged into the stomach with hydrated AF-LuCI pastes and imaged using micro-computed tomography (microCT). AF-LuCI pastes could be visualized on gastro-intestinal tissues without additional contrast agents owing to the presence of aluminum. For these experiments, rats were fasted overnight and gavaged directly into the stomach with 450 mg/kg rat of AF-LuCI paste hydrated in 0.9 w/v % normal saline solution. After 1 hr and 5 hr, the rats were anesthetized using isoflurane and imaged using microCT. […] FIG. 18A is a coronal plane view of SD rats gavaged with AF-LuCI 1 hr before the imaging. AF-LuCI formed a layer in stomach, duodenum and proximal intestine. FIGS. 18B and 18C are 3-dimentional views of SD rats gavaged with AF-LuCI (FIG. 18B) 1 hr and (FIG. 18C) 5 hr before the microCT imaging. AF-LuCI is attached on stomach, duodenum and proximal intestine at least for 5 hrs after gavage while sucralfate only formed sparsely scattered aggregates on the healthy mucosa

SD rats = test: OGTT with different viscosity, dose and dosing schedule (Example 12); format: in vivo, rat; details: normal SD rats
Protocol: Experiments were then performed to assess if the AF-LuCI coating could lower glucose response. To evaluate the in vivo effect of the barrier coating from AF-LuCI on postprandial glucose response, SD rats were pre-gavaged with the AF-LuCI pastes and standard OGTT was performed. AF-LuCI at different dosage but also different viscosity. It was hypothesized that low viscosity product may lead to barrier formation in larger area and earlier duodenal coating (onset of action). For these studies, rats were fasted overnight and gavaged with AF-LuCI pastes (dose: 450-2,700 mg/kg rat; viscosity: high and low), or saline as a control. One or three hours later, glucose solution (2 g/kg rat) was gavaged and changes in serum glucose levels measured every 30 minutes over the subsequent 120 min (n=4 per arm). Tail vein blood was used to measure glucose levels using glucometer. […] The time gap between AF-LuCI administration and glucose gavage also affects the reduction of blood glucose responses differently depending on the AF-LuCI formulations (FIG. 19C). 3 hr after treatment with 450 mg/kg rat lower viscosity AF-LuCI (i.e. 5 Pa·s), the reduction in glucose response decreased to 7%. In FIG. 19, AF-LuCI fabricated using 0.4N, 0.5N, and 0.6N HCl solution and rehydrated in 0.9 w/v % normal saline is denoted as “Viscosity High”, “Viscosity Mid”, and “Viscosity Low”, respectively.

[6] = cited from earlier work

## sucralfate
[1]
  release of aluminum: 15 w/w % of total aluminum content
[2]; distilled water or SIF
  layer formation: did not form any layer
[2]; only in SGF (pH 1.0)
  thickness of layer: ~ 250 μm
[3]; SGF, 10 mg on mucin-coated membrane, 120 g/L glucose, 5 minutes
  glucose penetration blocked: ~ 60%
[3]; applied on mucus-coated membrane in pH 1.0, then pH 4.0
  glucose blocked: 16.5%
[4]
  number of aluminum ions per molecule: 56.1±3.0 aluminum per molecule
[5]
  amount dissolved: Less than 5 w/w %
Sprague-Dawley (SD) rats
  layer formation in the GI tract (microCT): did not form a layer
SD rats
  area under curve (AUC) in OGTT vs saline treated group: no significant difference
[6]
  aluminum content of sucralfate (USP regulation): 15.5-18.5 w/w % of the total weight
